In patent US9750844B2, “Composition for use in wound healing in burns” (ACADEMIA SINICA, priority 2014, dated 2017):
“Also recorded” adds a separate entry of the source.

Legend:
MRSA [1] = assay: Assessment of wound infection: bacterial load (CFU) and Gram staining of wound tissue; format: in vivo, Balb/C mice; conditions: for Gram staining of MRSA / Gram-positive microorganisms in wound sections: Day 3 after inoculation
Procedure: Tissue samples were homogenized in PBS. Serially diluted aliquots of homogenate were cultured on Luria-Bertani agar after incubation for 18 h at 37° C., and cfu/g tissue were subsequently calculated. A stable wound infection was defined as 10^6 cfu/g tissue.
(§1) Full-thickness tissue was harvested for microbial and histological analysis. Samples from each experiment were fixed in 4% buffered paraformaldehyde. Tissue samples were stained with hematoxylin/eosin or Giemsa, and immunohistochemistry (IHC) was analyzed by three independent investigators. Images were taken with a BX-51 microscope (Olympus, Japan).
Multidrug-resistant strains of Staphylococcus aureus (MRSA) commonly associated with human wound infections were selected to generate a polymicrobial solution. The initial inoculum was prepared by culturing aerobic bacteria in Tryptic Soy Broth (TSB) overnight at 37° C. Broths were subsequently centrifuged at 1000 rpm for 15 min, and resuspended in TSB with 15% glycerol, or chopped meat extract with 15% glycerol (for aerobic bacteria). […] Prior to wound application, the bacterial stocks were re-mixed. Microbial load was determined by direct plating, followed by freeze-thaw and cfu enumeration, in parallel with inoculations. The inoculum was delivered by sterile pipettes to the center of open wounds. After euthanization (at Day 0, 3, 7, 14, or 17), two bisected tissue segments were used to determine microbial load using the protocol for human wound biopsy culture, as stated in the UPMC Clinical Microbiology Laboratory Procedure Manual. Tissue biopsies were weighed and placed in 1.5 ml of TSB, and then homogenized in a tissue grinder. A single drop of the homogenate was placed on the slide and Gram stained for rough assessment (if one or more bacteria are present within the oil immersion field, the expected count in the tissue is at least 10^5 cfu/g). Serial dilutions (1:10 (0.1+0.9)) of the tissue homogenate were made using distilled water. The cfu/g of tissue was calculated as follows: cfu/g=plate count (1/dilution)×10/wt. of homogenized tissue.

MCP-1, IL-6, TNF = assay: Serum cytokine/chemokine ELISA in MRSA-infected wounded mice; format: in vivo, Balb/C mice; conditions: Epi-1 study, 24 h post-treatment
Excerpt: (§2) Elisa kits for […] (Cat no. 555260, BD Biosciences, CA, USA), IL-6 (Cat no. 555240, BD Biosciences, CA, USA), and TNF (Cat no. 558534, BD Biosciences, CA, USA) were used to determine cytokine levels. Antibodies against macrophages (Cat no. 550282, BD Biosciences, CA, USA), monocytes (Cat no. 101301, BioLegend, London, UK), and VEGF (Cat no. 550549, BD Biosciences, CA, USA) were used for immunohistochemistry (IHC). Fish scale collagen peptides (FSCPs) were isolated from tilapia (Oreochromis sp.) by the Seafood Technology Division, Fisheries Research Institute, Council of Agriculture, Taiwan.
(§3) Each wound was inoculated with 50 μl of broth mix containing 10^6 CFU of the indicated microorganism. The wounds were treated with the antimicrobial peptide according to the invention and collagen at 5 min after inoculation. At 30 min after treatment, wounds were covered with Tegaderm to maintain uniformity and to prevent the loss of the materials as treated. The wounds were examined at Day 3, 7, and 14 after the wounds were created, and the non-contaminated wounds were examined every other day. The wounds were examined to assess the transitions from inflammatory to regenerative and regenerative to resolving phases of the wound healing. At the end of the examination period, the animals were euthanized by CO2 inhalation and the wounds were assessed. For each experiment, four individuals were examined in each group at each time point. Each wound was measured and then removed from the animal, with unwounded skin taken from the contralateral abdomen as a control.

MRSA [2] = assay: MRSA-infected full-thickness skin excision wound in mice: survival, wound closure, angiogenesis; format: in vivo, Balb/C mice; conditions: for survival of infected mice: wound infected with 10^6 CFU MRSA, topical treatment
Procedure: Six to eight week old Balb/C male mice were used for the examples. MRSA culture and quantification were carried out, and suspensions were serially diluted and spread onto LB-agar plates in duplicate for 24 hours. After the incubation period, colony forming units (CFU) were counted, averaged, and expressed as CFU/ml. All animal handing procedures were in accordance with National Taiwan Ocean University (NTOU) guidelines. All procedures were approved by the Animal Care and Use Committee of NTOU.
The mice were housed individually to prevent fighting and further damage to the wounds, and were given ad libitum access to food and water. The mice were maintained under 12 h/12 h light/dark cycle at a room temperature, and adapted to the environment for at least a week before used in the experiments. Each mouse's hair was removed from the back by shaving, and a full-thickness excisional wound (1 cm in diameter) was created on the back of the mice.
as §3
Tracings were taken immediately after injury. For uncontaminated wounds, wound size was determined every second day. For contaminated wounds, mice were euthanized at Day 3, 7, 14, or 17, and tracings of the wound edges were made. Wound areas were determined using the Macintosh Adobe Photoshop program and histological examination. The percentage of wound contraction was calculated as follows: % Wound contraction=(A0−At)/A0×100%
where A0 is the area of the original wound, and At is the area of the wound on Day 3, 7, 14, and 17.
Multidrug-resistant strains of Staphylococcus aureus (MRSA) commonly associated with human wound infections were selected to generate a polymicrobial solution. The initial inoculum was prepared by culturing aerobic bacteria in Tryptic Soy Broth (TSB) overnight at 37° C. Broths were subsequently centrifuged at 1000 rpm for 15 min, and resuspended in TSB with 15% glycerol, or chopped meat extract with 15% glycerol (for aerobic bacteria). The concentration was adjusted to 10^6 cfu/50 μl, and stored at −80° C. Prior to wound application, the bacterial stocks were re-mixed. Microbial load was determined by direct plating, followed by freeze-thaw and cfu enumeration, in parallel with inoculations. The inoculum was delivered by sterile pipettes to the center of open wounds. After euthanization (at Day 0, 3, 7, 14, or 17), two bisected tissue segments were used to determine microbial load using the protocol for human wound biopsy culture, as stated in the UPMC Clinical Microbiology Laboratory Procedure Manual. Tissue biopsies were weighed and placed in 1.5 ml of TSB, and then homogenized in a tissue grinder. A single drop of the homogenate was placed on the slide and Gram stained for rough assessment (if one or more bacteria are present within the oil immersion field, the expected count in the tissue is at least 10^5 cfu/g). Serial dilutions (1:10 (0.1+0.9)) of the tissue homogenate were made using distilled water. The cfu/g of tissue was calculated as follows: cfu/g=plate count (1/dilution)×10/wt. of homogenized tissue. […]

[3] = tested on: monocytes, macrophages, VEGF; assay: Histology (H&E, Giemsa) and immunohistochemistry of wound tissue; format: in vivo, Balb/C mice
Excerpt: as §2, §1

MRSA [4] = assay: Antimicrobial MIC/MBC assay against MRSA in vitro; format: cell-based, Staphylococcus aureus; conditions: bacterial proliferation by optical density at 600 nm
Procedure: Minimum inhibitory concentration (MIC) and minimum bactericidal concentration (MBC) antimicrobial assays were performed. For MIC assessment, the antimicrobial peptide, Epi-1, was diluted to final concentrations of […], or 0.78 μg/ml. Twenty microliters of each dilution were mixed in a microtiter plate well with […] of the appropriate bacterial indicator suspension, and 160 μl of Trypticase Soy Broth (TSB) for S. aureus, to a total volume of 200 μl. Three replicates were examined for each S. aureus strain, compound, and concentration. Positive controls contained water instead of compounds, and negative controls contained compounds without bacterial suspensions. Microbial growth was automatically determined by optical density measurement at 600 nm (Bioscreen C, Labsystem, Helsinki, Finland). Microplates were incubated at 25° C. for plant pathogens and at 37° C. for food-borne bacterial strains. Absorbance readings were taken at hourly intervals over a 48 h period. Plates were shaken for 20 seconds before each measurement. The experiment was repeated twice.

COc1cccc(OC)c1C(=O)N[C@@H]1C(=O)N2[C@@H]1SC(C)(C)[C@@H]2C(=O)O [methicillin]
Gram staining of MRSA / Gram-positive microorganisms in wound sections (MRSA [1]): completely abolished
wound flora at Day 3 (MRSA [1]; initial inoculum approximately 10^4 cfu/10 μl): about 10^8 cfu/10 μl
induction of IL-6 in serum (MCP-1, IL-6, TNF): unaffected
induction of TNF-α in serum (MCP-1, IL-6, TNF): unaffected
wound closure time (MRSA [2]; contaminated wounds, GE33 study (FIG. 8B)): lack of closure
survival of infected mice (MRSA [2]): died within four days

CN[C@H](CC(C)C)C(=O)N[C@H]1C(=O)N[C@@H](CC(N)=O)C(=O)N[C@H]2C(=O)N[C@H]3C(=O)N[C@H](C(=O)N[C@H](C(=O)O)c4cc(O)cc(O)c4-c4cc3ccc4O)[C@H](O)c3ccc(c(Cl)c3)Oc3cc2cc(c3O[C@@H]2O[C@H](CO)[C@@H](O)[C@H](O)[C@H]2O[C@H]2C[C@](C)(N)[C@H](O)[C@H](C)O2)Oc2ccc(cc2Cl)[C@H]1O [vancomycin]
colony counts between Days 7 and 17 (MRSA [1]; MRSA-contaminated wounds): decreased
induction of IL-6 in serum (MCP-1, IL-6, TNF): significantly decreased
induction of TNF-α in serum (MCP-1, IL-6, TNF): significantly decreased
survival of infected mice (MRSA [2]): survived
healing and re-epithelialization of excision region (MRSA [2]; wound infected with 10^6 cfu MRSA, 3, 7, 14 days): re-epithelialization observed
overall epidermal maturation, keratinization and regeneration of the epithelium ([3]; histology of wounds): impairment in overall epidermal maturation

Epinecidin-1 (GFIFHIIKGLFHAGKMIHGLV; grouper) [Epi-1]
MRSA CFU in cultured injured skin sections (MRSA [1]; 24 h after treatment, compared to the control): significantly reduced
Gram staining of MRSA / Gram-positive microorganisms in wound sections (MRSA [1]): completely abolished; also recorded: more efficient at attenuating MRSA infection than vancomycin
bacterial counts in cultured skin sections (CFU) (MRSA [1]; MRSA-infected mice, compared with vancomycin): significantly lower
MCP-1 induction by MRSA in serum (MCP-1, IL-6, TNF): decreased
induction of IL-6 in serum (MCP-1, IL-6, TNF): significantly decreased
induction of TNF-α in serum (MCP-1, IL-6, TNF): significantly decreased
wound closure (MRSA [2]; MRSA-infected wound, compared to vancomycin-treated mice and control mice): faster
new blood vessel formation (angiogenesis) (MRSA [2]; MRSA-infected wounded skin, light microscopy): more prominent
IHC staining of VEGF ([3]; infected wound, Day 3): clearly reduced
IHC staining/infiltration of macrophages ([3]; infected wound, Day 3): clearly reduced
IHC staining/infiltration of monocytes ([3]; infected wound, Day 3): clearly reduced
accumulation/recruitment of monocytes (Giemsa staining) ([3]; wounded area tissue sections, MRSA-infected): reduced their recruitment
antibacterial efficacy against MRSA in vitro (MRSA [4]): good antibacterial efficacy
